We go through three compounds from US10787651B2, “Bradyrhizobium monooxygenase and use thereof for preparation of chiral sulfoxide” (JIANGSU AOSAIKANG PHARMACEUTICAL CO., LTD., priority 2018, dated 2020).

The structures appear in SMILES notation.

Test [1] relates to Recombinant BoTEMO. Description: Asymmetric oxidation of thioethers by recombinant BoTEMO crude enzyme with glucose dehydrogenase recycling. As to conditions: 25° C. It counts as biochemical, Bradyrhizobium oligotrophicum ECU1212. The protocol:
The analysis is carried out with a high performance liquid chromatograph (HPLC) under the conditions of: a chiral OD-H column ([…], 5 μm particle size, Daicel), a mobile phase of n-hexane:isopropanol=93:7, a flow rate of 1 ml/min, and UV detection at 254 nm; or an AS-H column (250 mm×4.6 mm, 5 μm particle size, Daicel), a mobile phase of n-hexane:isopropanol=55:45, a flow rate of 0.5 mL/min, and UV detection at 254 nm.
To 0.5 ml potassium phosphate buffer (100 mmol/L, pH 9.0) was added 100 μL of crude enzyme solution of BoTEMO (the crude enzyme solution in accordance with the method of Example 5) and a crude enzyme solution of glucose dehydrogenase, and thioanisole, methanol, NADP^+ and glucose were added to the final concentration of 2 mmol/L, 10% (v/v), 0.2 mmol/L and 3.6 g/L, respectively. At 25° C. and 1000 rpm, the mixture was shaken for 1 h. After completion of reaction, 0.6 ml of ethyl acetate was added for extraction. The extract was dried over anhydrous sodium sulfate, and evaporated to remove the solvent. Then, the residue was dissolved in 0.5 ml of isopropanol. The mixture was analyzed in accordance with the method of Example 7 for measure the conversion of reaction and the ee value of product. The conversion of reaction was above 99%, and the ee value of product was above 99% (S).
To 0.5 ml of potassium phosphate buffer (100 mmol/L, pH 9.0) was added 100 μL crude enzyme solution of BoTEMO (the crude enzyme solution prepared in accordance with the method of Example 5) and a crude enzyme solution of glucose dehydrogenase, and omeprazole thioether, methanol, NADP^+ and glucose were added to the final concentrations of 0.2 mmol/L, 10% (v/v), 0.2 mmol/L and 3.6 g/L, respectively. At 25° C. and 1000 rpm, the mixture was shaken for 1 h. After completion of reaction, 0.6 ml of ethyl acetate was added for extraction. […] Then, the residue was dissolved in 0.5 ml isopropanol, and the solution was analyzed in accordance with the method of Example 7 for measuring the conversion of reaction and the ee value of product. […]
To 10 ml of potassium phosphate buffer (100 mmol/L, pH 9.0) was added 0.1 g of lyophilized crude enzyme powders of BoTEMO (crude enzyme powders prepared in accordance with the method of Example 5) and 0.02 g of lyophilized crude enzyme powder of glucose dehydrogenase (15 U/mg), and 1-3 g/L of omeprazole thioether/lansoprazole thioether/pantoprazole thioether/rabeprazle thioether/ilaprazole thioether, 10% (v/v) of methanol, 0.2 mmol/L of NADP^+ and 10 g/L of glucose were added. […] Then, the residue was dissolved in 0.5 ml of isopropanol, and the solution was analyzed in accordance with the method of Example 7 for measuring the conversion of reaction and the ee value of product. […]

Test [2] concerns Lysinibacillus. The conditions noted are these: substrate loading 0.1 g/L, after 48 fermentation cultivation; cited from earlier work.
The test system of test [3] is Bradyrhizobium oligotrophicum ECU1212 resting cells. Description: Asymmetric oxidation of thioethers by whole resting cells. The test is classed as cell-based. The procedure: Optionally, resting cells harvested from the culture of Bradyrhizobium oligotrophicum ECU1212 are used to asymmetrically catalyze the oxidation of lansoprazole thioether to prepared (R)-lansoprazole under the conditions that the thioether substrate concentration is 0.1 g/L, the catalyst loading is 10 g/L, and the reaction is carried out at 30° C. under stirring at 180 rpm. The conversion rate of lansoprazole thioether can be up to 80%, and the optical purity can be up to 99% ee(R). it can be seen that the Bradyrhizobium oligotrophicum ECU1212 comprises functional enzyme(s) which serve to asymmetrically catalyze the oxidation and have a high catalytic conversion rate. Thus, it can solve the problem that the conventional bio-catalysts have low conversion rate in the asymmetric catalytic oxidation process. […]
To 100 ml Tris-HCl buffer (100 mmol/L, pH 9.0) was added 1 g of Bradyrhizobium oligotrophicum ECU1212 lyophilized cells (lyophilized cells prepared in accordance with Example 2), and thioanisole and methanol were added to a final concentration of 37 g/L, 10% (v/v). […] Then, the residue was dissolved in 0.5 ml isopropanol, and the solution was analyzed in accordance with the method of Example 7 for the conversion of reaction and the ee value of product. […]

The subject of test [4] is BoTEMO-M2. Put plainly: Asymmetric oxidation of lansoprazole thioether by BoTEMO-M2. It counts as biochemical, Bradyrhizobium oligotrophicum ECU1212. As to conditions: BoTEMO-M2 powders in 100 ml, 3 g/L substrate, 25° C., 24 h. The procedure:
To 100 ml Tris-HCl buffer (100 mmol/L, pH 9.0) was added lyophilized crude enzyme powders of BoTEMO-M2 and 0.2 g crude enzyme of glucose dehydrogenase. Lansoprazole thioether, methanol, NADP^+ and glucose were added to the final concentrations of 3 g/L, 10% (v/v), 0.2 mmol/L and 5.4 g/L, respectively. The reaction was stirred at 25° C. and 180 rpm for 24 h. When the lansoprazole thioether was asymmetrically catalytically oxidized to (R)-lansoprazole, the resultant conversion of the reaction was above 99%, and the ee value of product was above 99% (R).

Test [5] relates to engineered cyclohexanone monooxygenase (CHMO). As to conditions: substrate loading 1.5 g/L, after 17 h; cited from earlier work.
The subject of test [6] is BoTEMO-M1. Description: Asymmetric oxidation of lansoprazole thioether by BoTEMO-M1. The test is classed as biochemical, Bradyrhizobium oligotrophicum ECU1212. The conditions noted are these: 10 g/L substrate, 25° C., 24 h. The procedure: (§1) To 100 ml Tris-HCl buffer (100 mmol/L, pH 9.0) was added 1 g of lyophilized crude enzyme powders of BoTEMO-M1 and 0.2 g crude enzyme of glucose dehydrogenase. Lansoprazole thioether, methanol, NADP^+ and glucose were added to the final concentrations of 10 g/L, 10% (v/v), 0.2 mmol/L and 15 g/L, respectively. The reaction was stirred at 25° C. and 180 rpm for 24 h. When the lansoprazole thioether was asymmetrically catalytically oxidized to (R)-lansoprazole, the resultant conversion of the reaction was above 99%, and the ee value of product was above 99% (R).
as §1, with “To 2 L” for “To 100 ml”, “added 20” for “added 1”, “g” for “g of”, “and 4” for “and 0.2”, “of” for “of the”, “(R). Separation by extraction gave […] of the product (R)-lansoprazole, and the yield was 86%.” for “(R).”

In the case of `COc1ccc2[nH]c(SCc3ncc(C)c(OC)c3C)nc2c1` [omeprazole thioether], the conversion of reaction result is “above 99%” in test [1] (1 g crude enzyme powders in 100 ml, 1 g/L substrate, 3 h) and “above 99%” in test [1] (crude enzyme solution, 0.2 mmol/L substrate, 1 h). For the same compound, the conversion in test [2] is on record as 77%.
For `Cc1c(OCC(F)(F)F)ccnc1CSc1nc2ccccc2[nH]1` [lansoprazole thioether], the conversion of reaction result in test [1] (0.2 g crude enzyme powders in 10 ml, 2 g/L substrate, 24 h) is “above 99%”; in test [6] (20 g BoTEMO-M1 powders in 2 L), “above 99%”. Also, in test [3] (substrate 0.1 g/L, catalyst loading 10 g/L, 30° C., 180 rpm), the conversion rate result is reported as “up to 80%”. Also, the “conversion of the reaction” value in test [4] and in test [6] (1 g BoTEMO-M1 powders in 100 ml) was “above 99%” in each case. Further, in test [5], the conversion was 1.2%.
As for `CSc1ccccc1` [thioanisole], the conversion of reaction entry in test [1] (crude enzyme solution, 2 mmol/L substrate, 1 h) was “above 99%”; in test [3] (37 g/L substrate, 1 g lyophilized cells in 100 ml, 28° C., 24 h), “above 99%”.
